In patent publication US20110086898A1, “PYRAZOLOOXAZOLE COMPOUND” (Eisai R&D Management Co., Ltd., priority 2009, published 2011):

Assays:
[1] = system: stress-related reduction in food intake; conditions: Brain Research, 823: 221-225 (1999); cited from earlier work
human CRFR1 = biological target: T1, human CRFR1 (Homo sapiens, UniProt P34998); assay: CRFR1 binding test (SPA competition with 125I-CRF); conditions: membrane fraction of human CRFR1-expressing HEK293 cells, read-out: CRF1 receptor binding capacity IC50
T1 construct: The full-length CRFR1 gene was obtained by PCR by using human brain cDNA library; expressed in transfected cells
T1 sequence (P34998 24-415): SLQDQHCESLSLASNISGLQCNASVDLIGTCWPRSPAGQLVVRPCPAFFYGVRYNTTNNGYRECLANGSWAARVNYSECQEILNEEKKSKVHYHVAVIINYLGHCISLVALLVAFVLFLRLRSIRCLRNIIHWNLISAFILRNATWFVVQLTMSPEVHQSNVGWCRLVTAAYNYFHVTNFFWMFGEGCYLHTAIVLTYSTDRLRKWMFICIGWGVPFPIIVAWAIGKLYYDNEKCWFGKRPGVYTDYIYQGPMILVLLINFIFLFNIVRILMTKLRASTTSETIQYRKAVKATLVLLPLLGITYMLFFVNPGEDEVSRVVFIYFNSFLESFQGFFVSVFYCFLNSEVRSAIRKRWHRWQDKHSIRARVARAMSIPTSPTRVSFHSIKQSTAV
Description: (1) Preparation of CRFR1-Expressing Cells
The membrane fraction of human CRFR1 high-expressing cells was used as the material for a CRFR1 binding experiment. The CRFR1-expressing cells were prepared in the following manner. The full-length CRFR1 gene was obtained by PCR by using human brain cDNA library (QuickClone™, Clontech). The obtained DNA fragment was inserted into a cloning vector and the base sequence was confirmed cDNA having the proper base sequence was linked to an expression vector (pcDNA3.1™, Invitrogen). The CRFR1 expression vector was genetically introduced into HEK293 cell, and the resistant cells which proliferated in culture medium containing G418 (1 mg/ml) were cloned by the limiting dilution method. Out of the cloned cells, cells having high binding capacity between the membrane fraction per unit protein and sauvagine were selected according to the following binding experiment, and the selected cells were used for the experiments.
(2) Preparation of Membrane Fraction
The cloned cells obtained in (1) were collected and suspended in ice-cooled membrane buffer (50 mM Tris-HCl, 5 mM MgCl2, 2 mM EGTA, 1 mM DTT, protease inhibitor cocktail (COMPLETE™, Roche Diagnostics) pH 7.3), and then the cells were disrupted with a Polytron (KINEMATICA) while cooling on ice (level 5, 10 seconds, 2-5 times, ice-cooling) and then centrifuged (2,000 rpm, 5 minutes, 4° C.), followed by collecting the supernatant. Membrane buffer was added to the precipitate, and the mixture was subjected to Polytron treatment (same conditions as mentioned above) and centrifuged (conditions as mentioned above), and the obtained supernatant was collected and combined with the previous supernatant. This was centrifuged (13,000 rpm (18,000×g), 30 minutes, 4° C.) to prepare cell membranes. The precipitated cell membranes were suspended in membrane buffer and disrupted with a Polytron (level 5, 10 seconds, 3-5 times, ice-cooling) to prepare a dispersed suspension. The protein assay was carried out.
The following method (1) or (2) was earned out for use as the cell membrane action.
(1) The above dispersed suspension was diluted with membrane buffer containing 0.1% BSA to a protein concentration of 200 μg/ml, for use as the cell membrane fraction.
(2) The above dispersed suspension was freeze-preserved, and if necessary, thawed, re-dispersed and diluted for use as the cell membrane fraction.
A binding competition experiment with CRF was conducted by the SPA (GE Healthcare) method using a 96-well plate. Five jug of the cell membrane fraction protein, 1 mg of SPA beads and […] ^125I-CRF (Perkin Elmer) were allowed to stand at mom temperature for at least two hours in the presence of a test compound, and the radioactivity of each well after centrifugation (1,200 rpm (260×g), five minutes, room temperature) was measured with a TopCount (registered trademark; Perkin Elmer).
(4) Calculation of Binding Capacity
The radioactivity with addition of a 4,000-fold excess of non-radioactive sauvagine as the nonspecific binding was subtracted from each value, and the resulting value was expressed as a percentage (% of control), with 100% as the radioactivity without addition of the test compound (control).

male Balb/c mice = assay: Light/dark box test in mice (anxiolytic effect); type: in vivo; conditions: for anxiolytic effect in the light/dark box test in mice: dose 30 mg/kg, oral administration; for Effective Dose: minimum dose significantly prolonging time spent in light box vs vehicle, oral, one hour prior to test, Balb/c mice
Description: Evaluation of Anxiolytic Effect in Light/Dark Box Test in Mice
The light/dark box test in mice was carried out according to a modified method of Belzung C., Misslin R., and Vogel E. et al. (Reference; Behavioural effects of the benzodiazepine receptor partial agonist RO16-6028 in mice, Psychopharmacology, 97, 388-391, 1989). The test apparatus used in this test was a light/dark box including a covered black acrylic box (dark box; 15×10×20 cm), a white acrylic box with top opened (light box; 15×20×20 cm) and a black acrylic tunnel (10×7×4.5 cm) that connects the dark box and the light box and enables a mouse to freely move back and forth between the dark box and light box. In this test apparatus, however, a transparent acrylic plate was used for the front side (20×20 cm) and back side (20×20 cm) of the light box to allow observation of the behavior. After setting illumination so that the light intensity of the floor surface of the light box became 150 Lux, 5-week-old male Balb/c mice (purchased from Nihon Charles River) were introduced into the dark box and the test was started. In the test; the tested compound was suspended in 5% dimethyl sulfoxide, 5% Cremopor EL and 90% physiological saline and orally administered to the test animals one hour prior to the start of the test.
(2) Calculation of Anxiolytic Effect:
The time spent in the light box was measured as an index of the anxiolytic effect, with “spend in the light box” defined as the state in which all limbs of the mice were on the floor of the light box. […] The statistical significance between the vehicle-treated group and the test compound-treated groups was analyzed by one-way layout analysis of variance followed by Dunnett multiple comparison when multiple doses were set for the same test, and by the Mann-Whitney U test when only one dose was set.

rat = conditions: Brain Research, 893:29-35 (2001); cited from earlier work
Tg2576 transgenic mice = conditions: Journal of Neurochemistry, 108: 165-175 (2009); cited from earlier work
limbic system seizure = conditions: Brain Research, 770:89-95; cited from earlier work
IBS patients = conditions: Gut 2004, 53:958-964; cited from earlier work
ethanol withdrawal rats = conditions: Brain Research, 605:25-32 (1993); cited from earlier work
intracerebral amyloid-β = conditions: PNAS 104: 10673-10678 (2007); cited from earlier work
[2] = system: ischemic and excitotoxic encephalopathy; conditions: Brain Research, 656: 405-408 (1994); cited from earlier work

Question: For `CCN(c1nc(C)cc(N2CC=C(c3cccc(F)c3)CC2)n1)c1ccc(C(C)C)cc1SC` [CRA1000], which “stress-related reduction in food intake” value [1] is on record?
Answer: inhibit

Question: Which IC50 (human CRFR1) does the source give for `CCc1nn2c(-c3c(OC)cc(COC)cc3OC)coc2c1N(CC1CCOCC1)CC1CC1` [Example 3, N-(cyclopropylmethyl)-3-[2,6-dimethoxy-4-(methoxymethyl)phenyl]-6-ethyl-N-(tetrahydro-2H-pyran-4-ylmethyl)pyrazolo[5,1-b][1,3]oxazole-7-amine] here?
Answer: 100 nM

Question: What does the source list for `CCc1nn2c(-c3c(OC)cc(COC)cc3OC)c(C)oc2c1N(CC1CCOCC1)CC1CC1` [Example 5, N-(cyclopropylmethyl)-3-[2,6-dimethoxy-4-(methoxymethyl)phenyl]-6-ethyl-2-methyl-N-(tetrahydro-2H-pyran-4-ylmethyl)pyrazolo[5,1-b][1,3]oxazole-7-amine]?
Answer: IC50 (human CRFR1): 32 nM; anxiolytic effect in the light/dark box test in mice (male Balb/c mice): statistically significant effects; Effective Dose (male Balb/c mice): 30 mg/kg

Question: Which IC50 (human CRFR1) does the source give for `CCc1nn2c(-c3c(OC)cc(COC)cc3OC)c(C)oc2c1N(CC(C)C)CC1CCOCC1` [Example 6, 3-[2,6-dimethoxy-4-(methoxymethyl)phenyl]-6-ethyl-N-isobutyl-2-methyl-N-(tetrahydro-2H-pyran-4-ylmethyl)pyrazolo[5,1-b][1,3]oxazole-7-amine] here?
Answer: 43 nM

Question: Which IC50 (human CRFR1) does the source give for `CCc1nn2c(-c3c(OC)cc(COC)cc3OC)c(C)oc2c1N(CC1CC1)CC1CC1` [Example 7, N,N-bis(cyclopropylmethyl)-3-[2,6-dimethoxy-4-(methoxymethyl)phenyl]-6-ethyl-2-methylpyrazolo[5,1-b][1,3]oxazole-7-amine] here?
Answer: 21 nM

Question: For `CCc1nn2c(-c3c(OC)cc(COC)cc3OC)c(C)oc2c1N(CC1CC1)CC1CCOC1` (stereo not drawn) [Example 8, N-(cyclopropylmethyl)-3-[2,6-dimethoxy-4-(methoxymethyl)phenyl]-6-ethyl-2-methyl-N-(tetrahydrofuran-3-ylmethyl)pyrazolo[5,1-b][1,3]oxazole-7-amine], which IC50 (human CRFR1) is on record?
Answer: 77 nM

Question: Which IC50 (human CRFR1) does the source give for `CCOCc1cc(OC)c(-c2c(C)oc3c(N(CC4CC4)CC4CCOC4)c(CC)nn23)c(OC)c1` (stereo not drawn) [Example 9, N-(cyclopropylmethyl)-3-[4-(ethoxymethyl)-2,6-dimethoxyphenyl]-6-ethyl-2-methyl-N-(tetrahydrofuran-3-ylmethyl)pyrazolo[5,1-b][1,3]oxazole-7-amine] here?
Answer: 44 nM

Question: What does the source list for `COCc1cc(OC)c(-c2c(C)oc3c(N(CC4CCOCC4)CC4CC4)c(C)nn23)c(OC)c1` [Example 10, N-(cyclopropylmethyl)-3-[2,6-dimethoxy-4-(methoxymethyl)phenyl]-2,6-dimethyl-N-(tetrahydro-2H-pyran-4-ylmethyl)pyrazolo[5,1-b][1,3]oxazole-7-amine]?
Answer: IC50 (human CRFR1): 71 nM; anxiolytic effect in the light/dark box test in mice (male Balb/c mice): statistically significant effects; Effective Dose (male Balb/c mice): 30 mg/kg

Question: Which IC50 (human CRFR1) does the source give for `COCc1cc(OC)c(-c2c(C)oc3c(N(CC(C)C)CC4CCOCC4)c(C)nn23)c(OC)c1` [Example 11, 3-[2,6-dimethoxy-4-(methoxymethyl)phenyl]-N-isobutyl-2,6-dimethyl-N-(tetrahydro-2H-pyran-4-ylmethyl)pyrazolo[5,1-b][1,3]oxazole-7-amine] here?
Answer: 50 nM

Question: Which IC50 (human CRFR1) does the source give for `COCc1cc(OC)c(-c2c(C)oc3c(N(CC(C)C)CC4CCOC4)c(C)nn23)c(OC)c1` (stereo not drawn) [Example 12, 3-[2,6-dimethoxy-4-(methoxymethyl)phenyl]-N-isobutyl-2,6-dimethyl-N-(tetrahydrofuran-3-ylmethyl)pyrazolo[5,1-b][1,3]oxazole-7-amine] here?
Answer: 79 nM

Question: For `CCOCc1cc(OC)c(-c2c(C)oc3c(N(CC4CCOCC4)CC4CC4)c(C)nn23)c(OC)c1` [Example 13, N-(cyclopropylmethyl)-3-[4-(ethoxymethyl)-2,6-dimethoxyphenyl]-2,6-dimethyl-N-(tetrahydro-2H-pyran-4-ylmethyl)pyrazolo[5,1-b][1,3]oxazole-7-amine], which IC50 (human CRFR1) is on record?
Answer: 61 nM

Question: Which IC50 (human CRFR1) does the source give for `CCc1nn2c(-c3c(OC)cc(COC)cc3OC)c(C)oc2c1N(CC1CC1)CC1COCOC1` [Example 14, N-(cyclopropylmethyl)-3-[2,6-dimethoxy-4-(methoxymethyl)phenyl]-N-(1,3-dioxan-5-ylmethyl)-6-ethyl-2-methylpyrazolo[5,1-b][1,3]oxazole-7-amine] here?
Answer: 121 nM

Question: With `CCCCN(c1c(CC)nn2c(-c3c(OC)cc(COC)cc3OC)c(C)oc12)C1CCOCC1` [Example 15, N-butyl-3-[2,6-dimethoxy-4-(methoxymethyl)phenyl]-6-ethyl-2-methyl-N-(tetrahydro-2H-pyran-4-yl)pyrazolo[5,1-b][1,3]oxazole-7-amine] as the molecule, how does the IC50 (human CRFR1) read?
Answer: 98 nM

Question: For `CCc1nn2c(-c3c(OC)cc(COC)cc3OC)c(C)oc2c1N(CC1CC1)C1CCOCC1` [Example 16, N-(cyclopropylmethyl)-3-[2,6-dimethoxy-4-(methoxymethyl)phenyl]-6-ethyl-2-methyl-N-(tetrahydro-2H-pyran-4-yl)pyrazolo[5,1-b][1,3]oxazole-7-amine], which IC50 (human CRFR1) is on record?
Answer: 102 nM

Question: Which “water avoidance stress-related rat catharsis” value (rat) does the source give for `CCCN(CC1CC1)c1nc(C)nc(Nc2c(Cl)cc(Cl)cc2Cl)c1Cl` [NBI-27914] here?
Answer: inhibits

Question: And the “increased levels of Aβ and Aβ plaque deposition induced by stress” value (Tg2576 transgenic mice)?
Answer: inhibits

Question: What about the “limbic system seizure (convulsion and epilepsy induced by CRF administration)” value (limbic system seizure) of the same molecule?
Answer: inhibits

Question: What does the source list for α-helical CRF (9-41)?
Answer: abdominal pain and anxiety (IBS patients): reduces; colon intestinal hyperkinesis (IBS patients): inhibits; anxiety behavior in ethanol withdrawal rats (ethanol withdrawal rats): inhibits; stress-related reduction in food intake [1]: inhibit; stress-related increase in intracerebral amyloid-β (intracerebral amyloid-β): suppresses; ischemic and excitotoxic encephalopathy [2]: inhibits
